Source: patent US10023544B2, “Heterocyclic compound” (Takeda Pharmaceutical Company Limited, priority 2014, dated 2018)
Structures can show the parent of a compound that is named as a salt.

Legend:
[1] = biological target: T1, Human recombinant enteropeptidase (Homo sapiens, UniProt P98073); experiment: Human enteropeptidase inhibitory activity; format: biochemical; conditions: 3.3 uM test compound; fluorescence intensity 2 hours after start of reaction; read-out: Inhibition rate at 3.3 uM (%)
T1 construct: purchased ITSI-Biosciences, LLC #REN-260
Procedure: Human recombinant enteropeptidase (#REN-260, ITSI-Biosciences, LLC) was diluted with an assay buffer (50 mM Tricine (pH 8.0), 0.01 (w/v) % Tween 20, 10 mM CaCl2) to prepare a 24 mU/mL enzyme solution. Subsequently, 5FAM-Abu-Gly-Asp-Asp-Asp-Lys-Ile-Val-Gly-Gly-Lys(CPQ2)-Lys-Lys-NH2 (purity: 97.2%, CPC Scientific, Inc.) produced according to a synthesis method known per se was diluted with an assay buffer to prepare a 2.1 uM (“u” represents “micro”) substrate solution. Each test compound was dissolved in DMSO to prepare a 1 mM solution, which was then diluted 100-fold with an assay buffer to prepare a compound solution. The compound solution (5 uL/well) and the substrate solution (5 uL/well) were added to a 384-well black plate (#784076, Greiner Bio-One) and mixed. Then, the enzyme solution (5 uL/well) was added to the plate and mixed to start reaction. The fluorescence intensity was measured at an excitation wavelength of 485 nm and a fluorescence wavelength of 535 nm using a fluorescence plate reader EnVision (PerkinElmer Inc.). Also, the same reaction as above was performed except that the test compound was not added (test compound non-supplemented group). In addition, the same reaction as above was performed except that neither the test compound nor the enzyme was added (control group). The inhibition rate was calculated from the fluorescence intensity 2 hours after the start of the reaction according to the following equation: Inhibition rate (%)=(1−(Fluorescence intensity of the test compound supplemented group−Fluorescence intensity of the control group)/(Fluorescence intensity of the test compound non-supplemented group−Fluorescence intensity of the control group))×100

DIO mouse = experiment: Test on antiobesity action using DIO mouse; format: in vivo; conditions: mean ± SD; for Body weight (g) At start of administration: baseline
Procedure: A 0.5% methylcellulose suspension (test compound administered group, 5 or 6 mice per group) containing each test compound (20 or 60 mg/kg) or a 0.5% methylcellulose suspension (test compound non-administered group (vehicle), 6 mice per group) was orally administered to each diet-induced obesity (DIO) mouse (D12079B diet, male, 46 weeks old) once a day for 4 weeks. The means of body weights and standard deviations at the start of administration and after 4-week continuous administration are shown below.

HFD-fed mouse = experiment: Test on elevation of protein concentration in feces using HFD-fed mouse; format: in vivo; conditions: 10 mg/kg oral, whole feces at day 1 of administration, mean ± SD
Procedure: A 0.5% methylcellulose suspension (test compound administered group, 5 mice per group) containing each test compound (10 mg/kg) or a 0.5% methylcellulose suspension (test compound non-administered group (vehicle), 5 mice per group) was orally administered to each high fat diet-fed (HFD-fed) mouse (D12079B diet, male, 15 weeks old), and the whole feces were recovered at day 1 of administration. The dry feces were dissolved in a 0.5 N aqueous sodium hydroxide solution. After centrifugation at 12,000 rpm, a protein concentration was quantified (Lowry method) using the supernatant to calculate a protein concentration (mg/g feces) in 1 g of feces. The mean and standard deviation of each group are shown below.

T1 sequence (P98073 whole entry): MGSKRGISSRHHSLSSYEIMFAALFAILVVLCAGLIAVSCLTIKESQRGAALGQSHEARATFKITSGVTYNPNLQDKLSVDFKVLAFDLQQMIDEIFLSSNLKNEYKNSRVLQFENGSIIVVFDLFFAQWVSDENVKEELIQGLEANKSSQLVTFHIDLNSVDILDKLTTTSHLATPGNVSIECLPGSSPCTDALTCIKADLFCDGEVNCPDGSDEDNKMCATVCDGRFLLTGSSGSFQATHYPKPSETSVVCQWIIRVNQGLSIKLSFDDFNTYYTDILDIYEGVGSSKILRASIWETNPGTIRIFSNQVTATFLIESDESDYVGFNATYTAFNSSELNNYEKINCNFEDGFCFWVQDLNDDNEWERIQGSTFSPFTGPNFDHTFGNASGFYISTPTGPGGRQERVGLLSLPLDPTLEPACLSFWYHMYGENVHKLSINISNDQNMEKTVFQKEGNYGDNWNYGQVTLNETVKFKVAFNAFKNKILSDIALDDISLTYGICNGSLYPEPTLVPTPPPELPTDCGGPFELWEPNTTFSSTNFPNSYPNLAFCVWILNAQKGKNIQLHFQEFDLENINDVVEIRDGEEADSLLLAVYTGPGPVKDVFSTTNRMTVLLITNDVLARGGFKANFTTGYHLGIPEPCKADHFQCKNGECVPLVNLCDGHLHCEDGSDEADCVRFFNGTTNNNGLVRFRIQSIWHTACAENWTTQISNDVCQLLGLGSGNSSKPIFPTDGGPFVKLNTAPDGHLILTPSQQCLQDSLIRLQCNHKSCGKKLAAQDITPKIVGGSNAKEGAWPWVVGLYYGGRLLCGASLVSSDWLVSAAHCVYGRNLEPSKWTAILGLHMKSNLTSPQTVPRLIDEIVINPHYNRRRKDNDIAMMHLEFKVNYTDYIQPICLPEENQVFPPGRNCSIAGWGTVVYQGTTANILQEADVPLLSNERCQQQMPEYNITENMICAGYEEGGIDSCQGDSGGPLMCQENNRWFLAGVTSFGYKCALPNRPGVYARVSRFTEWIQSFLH

SMILES	inhibition at 3.3 µM [1] [%]	further results
N=C(N)Nc1ccc(C(=O)Oc2cccc(C3=NO[C@](CC(=O)O)(C(=O)O)C3)c2)cc1 [Example 1, (5R)-3-(3-((4-Carbamimidamidobenzoyl)oxy)phenyl)-5-(carboxymethyl)-4,5-dihydro-1,2-oxazole-5-carboxylic acid]	101	Body weight (g) After 4-week continuous administration (DIO mouse; 20 mg/kg oral once a day for 4 weeks): 43.1 ± 3.5 g; Body weight (g) At start of administration (DIO mouse; 20 mg/kg oral once a day): 48.9 ± 2.0 g; Body weight (g) After 4-week continuous administration (DIO mouse; 60 mg/kg oral once a day for 4 weeks): 40.2 ± 2.1 g; Body weight (g) At start of administration (DIO mouse; 60 mg/kg oral once a day): 48.9 ± 2.5 g; Protein concentration in feces (HFD-fed mouse): 151.5 ± 22.8 mg/g
N=C(N)Nc1ccc(C(=O)Oc2cccc(C3=NO[C@@](CC(=O)O)(C(=O)O)C3)c2)cc1 [Example 5, (5S)-3-(3-((4-Carbamimidamidobenzoyl)oxy)phenyl)-5-(carboxymethyl)-4,5-dihydro-1,2-oxazole-5-carboxylic acid]	101	Protein concentration in feces (HFD-fed mouse): 144.5 ± 26.6 mg/g
N=C(N)Nc1ccc(C(=O)Oc2cc(CCC(=O)O)cc(C3=NOC(CC(=O)O)(C(=O)O)C3)c2)cc1 (stereo not shown) [Example 14, 3-(3-((4-Carbamimidamidobenzoyl)oxy)-5-(2-carboxyethyl)phenyl)-5-(carboxymethyl)-4,5-dihydro-1,2-oxazole-5-carboxylic acid trifluoroacetate]	100	
Cc1cc(OC(=O)c2ccc(NC(=N)N)cc2)cc(C2=NOC(CC(=O)O)(C(=O)O)C2)c1 (stereo not shown) [Example 11, 3-(3-((4-Carbamimidamidobenzoyl)oxy)-5-methylphenyl)-5-(carboxymethyl)-4,5-dihydro-1,2-oxazole-5-carboxylic acid trifluoroacetate]	100	
CC(C)(C)C1CCC(c2cc(OC(=O)c3ccc(NC(=N)N)cc3)cc(C3=NOC(CC(=O)O)(C(=O)O)C3)c2)CC1 (stereo not drawn) [Example 12, 3-(3-(4-tert-butylcyclohexyl)-5-((4-carbamimidamidobenzoyl)oxy)phenyl)-5-(carboxymethyl)-4,5-dihydro-1,2-oxazole-5-carboxylic acid (trans or cis form)]	101	
N=C(N)Nc1ccc(C(=O)Oc2cc(CCC(=O)N[C@@H](CC(=O)O)C(=O)O)cc(C3=NOC(CC(=O)O)(C(=O)O)C3)c2)cc1 (stereo partly drawn) [Example 19, N-(3-(3-((4-carbamimidamidobenzoyl)oxy)-5-(5-carboxy-5-(carboxymethyl)-4,5-dihydro-1,2-oxazol-3-yl)phenyl)propanoyl)-L-aspartic acid]	101	
Cc1ccc(OC(=O)c2ccc(NC(=N)N)cc2)cc1C1=NOC(CC(=O)O)(C(=O)O)C1 (stereo not shown) [Example 3, 3-(5-((4-Carbamimidamidobenzoyl)oxy)-2-methylphenyl)-5-(carboxymethyl)-4,5-dihydro-1,2-oxazole-5-carboxylic acid trifluoroacetate]	101	
N=C(N)Nc1ccc(C(=O)Oc2ccc(C3CCN(C(=O)CCC(=O)N[C@@H](CC(=O)O)C(=O)O)CC3)c(C3=NOC(CC(=O)O)(CC(=O)O)C3)c2)cc1 [Example 21, N-(4-(4-(2-(5,5-bis(carboxymethyl)-4,5-dihydro-1,2-oxazol-3-yl)-4-((4-carbamimidamidobenzoyl)oxy)phenyl)piperidin-1-yl)-4-oxobutanoyl)-L-aspartic acid]	100	

Now from value to molecule, other results behind:

inhibition at 3.3 µM [1] [%]	SMILES	further results
100	N=C(N)Nc1ccc(C(=O)Oc2cc(CCC(=O)N[C@@H](CC(=O)O)C(=O)O)cc(C3=NOC(CC(=O)O)(CC(=O)O)C3)c2)cc1 [Example 23, N-(3-(3-(5,5-bis(carboxymethyl)-4,5-dihydro-1,2-oxazol-3-yl)-5-((4-carbamimidamidobenzoyl)oxy)phenyl)propanoyl)-L-aspartic acid]	
100	N=C(N)Nc1ccc(C(=O)Oc2ccc(CCC(=O)N3CCC(C(=O)O)CC3)c(C3=NOC(CC(=O)O)(CC(=O)O)C3)c2)cc1 [Example 33, 1-(3-(2-(5,5-Bis(carboxymethyl)-4,5-dihydro-1,2-oxazol-3-yl)-4-((4-carbamimidamidobenzoyl)oxy)phenyl)propanoyl)piperidine-4-carboxylic acid]	
100	N=C(N)Nc1ccc(C(=O)Oc2ccc(CCC(=O)N3CCS(=O)(=O)CC3)c(C3=NOC(CC(=O)O)(CC(=O)O)C3)c2)cc1 [Example 25, 2,2′-(3-(5-((4-Carbamimidamidobenzoyl)oxy)-2-(3-(1,1-dioxidothiomorpholin-4-yl)-3-oxopropyl)phenyl)-4,5-dihydro-1,2-oxazole-5,5-diyl)diacetic acid]	
100	N=C(N)Nc1ccc(C(=O)Oc2ccc(CCC(=O)NCC(=O)O)c(C3=NOC(CC(=O)O)(CC(=O)O)C3)c2)cc1 [Example 30, N-(3-(2-(5,5-bis(carboxymethyl)-4,5-dihydro-1,2-oxazol-3-yl)-4-((4-carbamimidamidobenzoyl)oxy)phenyl)propanoyl)glycine]	
101	N=C(N)Nc1ccc(C(=O)Oc2ccc(C3CCN(CCC(=O)O)CC3)c(C3=NOC(CC(=O)O)(CC(=O)O)C3)c2)cc1 [Example 22, 3-(4-(2-(5,5-Bis(carboxymethyl)-4,5-dihydro-1,2-oxazol-3-yl)-4-((4-carbamimidamidobenzoyl)oxy)phenyl)piperidin-1-yl)propanoic acid ditrifluoroacetate]	
